These results are taken from article PMC7509555, “An In Vitro Study for Evaluating Permeability and Metabolism of Kurarinone” (Evidence-based Complementary and Alternative Medicine : eCAM, 2020).

Structures are written as SMILES.

One series has as its target T1, UGT1A6 (Homo sapiens, UniProt P19224).
T1 construct: purchased BD Gentest Corp. (Woburn, MA, USA)
T1 sequence (P19224 27-532): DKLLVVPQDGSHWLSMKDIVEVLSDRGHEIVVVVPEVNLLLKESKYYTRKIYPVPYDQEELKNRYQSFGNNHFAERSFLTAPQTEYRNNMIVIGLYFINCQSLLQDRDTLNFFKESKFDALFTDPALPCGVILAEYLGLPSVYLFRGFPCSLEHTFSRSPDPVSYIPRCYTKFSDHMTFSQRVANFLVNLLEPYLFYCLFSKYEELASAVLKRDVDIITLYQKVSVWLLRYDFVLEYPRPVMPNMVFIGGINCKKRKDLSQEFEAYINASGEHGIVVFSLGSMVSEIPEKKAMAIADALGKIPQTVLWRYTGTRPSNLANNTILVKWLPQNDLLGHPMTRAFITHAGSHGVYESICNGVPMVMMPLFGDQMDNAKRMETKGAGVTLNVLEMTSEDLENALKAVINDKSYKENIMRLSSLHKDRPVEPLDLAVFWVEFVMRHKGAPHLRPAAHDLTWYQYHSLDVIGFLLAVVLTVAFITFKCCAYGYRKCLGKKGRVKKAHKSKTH
The experiment in a line: Inhibition of recombinant UGT1A6-catalyzed 4-MU glucuronidation. The following applies: recombinant UGT1A6, pH 7.4, probe 4-MU (110 μM), 100 μM kurarinone, recombinant UGT. Type of series: in vitro ADME. As to the method:
4-MU, a nonspecific probe substrate for UGT isoforms, was used to explore the inhibition of UGT isoforms by kurarinone. The mixture (200 μL total volume) contained recombinant UGTs (final concentrations: 0.125, 0.05, 0.025, 0.05, 0.025, 0.05, 0.05, 0.25, 0.05, and 0.2 mg/mL for UGT1A1, UGT1A3, UGT1A6, UGT1A7, UGT1A8, UGT1A9, UGT1A10, UGT2B4, UGT2B7, and UGT2B15, respectively), 5 mM UDPGA, 5 mM MgCl2, 50 mM Tris-HCl buffer (pH 7.4), and 4-MU in the absence or presence of various concentrations of kurarinone. The concentrations of 4-MU were as follows: 110 μM for UGT1A1 and UGT1A6, 1200 μM for UGT1A3 and UGT2B4, 15 μM for UGT1A7, 750 μM for UGT1A8, 30 μM for UGT1A9, 80 μM for UGT1A10, 350 μM for UGT2B7, 250 μM for UGT2B15, and 2000 μM for UGT2B17. Kurarinone was dissolved in methanol, and the final concentration of methanol was 0.5% (v/v). Reactions were initiated by adding UDPGA, and incubations were carried out at 37°C in a shaking waterbath for 60 min. The reactions were terminated by addition of 200 μL of ice-cold acetonitrile containing 7-hydroxycoumarin (100 μM) as the internal standard. The incubation mixture was then centrifuged at 20,000 ×g for 20 min to obtain the supernatant, and an aliquot of supernatant (20 μL) was transferred to an autoinjector vial for HPLC analysis.

Another series has as its system CYP2C9. As to the kind of experiment: Inhibition of CYP2C9 activity (diclofenac probe) in RLMs. It counts as in vitro ADME. Conditions: rat, rat liver microsomes, probe diclofenac 10 μM, 100 μM kurarinone, 10 μM diclofenac. Here is the method: Samples were prepared in a total volume of 200 μL, containing 0.3 mg/mL protein in human liver microsomes or 15 nM protein in recombinant human supersomes, probe substrates or 50 μM kurarinone, 10 mM MgCl2, 10 mM glucose-6-phosphate, and 1 unit/mL of glucose-6-phosphate dehydrogenase. The reactions were activated by adding NADPH following preincubation at 37°C for 5 min. The reactions were maintained at 37°C for 1 h and terminated by adding 200 μL ice-cold acetonitrile. The supernatant (10 μL) collected from the samples that were centrifuged (20,000 g, 20 min, 4°C) was injected into the HPLC system for analysis. Control incubations devoid of NADPH or kurarinone were performed parallelly to ensure that the produced metabolites were NADPH- or kurarinone-dependent.
RLMs were used to assess the inhibitory effects of kurarinone (100 μM) on six different human isoforms (CYP1A2, CYP2C9, CYP2D6, CYP2E1, CYP3A4, and CYP2C19). The probe substrates used in this experiment were 40 μM phenacetin for CYP1A2, 10 μM diclofenac for CYP2C9, 25 μM dextromethorphan for CYP2D6, 120 μM chlorzoxazone for CYP2E1, 35 μM testosterone for CYP3A4, and 20 μM (S)-mephenytoin for […] as described earlier. The reaction system has been described in Section 2.3. […]

Details of series [1]: method as in PMID 25703950. The following applies: rats, cited from earlier work.
Another series relates to primary rat hepatocytes. The following applies: cited from earlier work.
The nature of series [2]: Prediction of in vivo hepatic clearance in human from HLM kinetics. Type of series: in vitro ADME. The source says: The following equations were utilized to predict the in vivo hepatic clearance of kurarinone in humans and rats.(1) CLint in vitro=Vmax/Km, (2) […], (3) CLH=QH·fu·CLint in/QH+fu·CLint in vivo, where the SF (scaling factor) represents the milligrams of microsomal protein per gram of the liver multiplied by the grams of liver weight; CLint is the intrinsic metabolic clearance; CLH is hepatic clearance; fu is the free fraction in the blood (no data were available for kurarinone; thus, fu was arbitrarily proposed to be 1); and QH is the hepatic blood flow. The CLH of kurarinone was calculated using equations (1)–(3).

In series [3] the test system is human liver microsomes (HLMs). The experiment in a line: Enzyme kinetics of P1 formation from kurarinone in HLMs. It counts as in vitro ADME.

For `C=C(C)[C@H](CC=C(C)C)Cc1c(O)cc(OC)c2c1O[C@H](c1ccc(O)cc1O)CC2=O` [Kurarinone], the inhibition at 60 min, 100 μM at UGT1A6 was greater than 90%. In the series with CYP2C9, this compound gave an inhibition at 1 h, 100 μM greater than 90%. For the same compound, the t1/2 in series [1] (intravenous 10 mg/kg) is on record as 1.81 h. Further, the Cmax in series [1] is listed as 1668.01 ng/mL. Further, in the series on primary rat hepatocytes, the cytotoxicity result was “remarkable cytotoxicity”. The “percentage of CLH versus hepatic blood flow (QH)” value in series [2] (human) is listed as 81.27%. Also, the “predicted hepatic clearance CLH” value in series [2] (humans, from HLM kinetic parameters of P1, fu assumed 1) was 16.82 mL/min/kg. Besides, in series [2] (in humans, high-clearance = >70% liver blood flow), the “clearance category based on CLH projected from in vitro data” value is listed as “high-clearance”. In addition, in series [3], the “Vmax of P1 formation” value amounted to 1.56 ± 0.24 nmol·min^−1·mg^−1 protein. Also, the Michaelis constant (Km) in series [3] (kurarinone 1–200 μM) is 22 ± 4.93 µM.
